In assay [1] the test system is platelet aggregation induced by TXA2 agonist U-46619. The experiment in a line: Platelet Aggregation-inhibition Action 1 (U-46619-induced, platelet-rich plasma). In kind it is cell-based. The settings on record: U-46619 1-4 μM final, PRP, compound added one minute before U-46619. The method, then:
Platelet Aggregation-inhibition Action 1
(§1) Blood collected from medial cubital vein is centrifuged at 800 rmp for 10 minutes and the upper portion of the resultant is collected as platelet-rich plasma (PRP). The PRP is dividedly poured into small test tubes and a TXA2 agonist U-46619 is added thereto (final concentration: 1-4 μM) so as to induce platelet aggregation. The degree of platelet aggregation is measured in terms of change in turbidity by a platelet aggregation measuring apparatus (Hematoracer, NIKO BIOSCIENCE). The compound is added one minute before the addition of U-46619 and the concentration of the compound at which the aggregation is inhibited by 50% is calculated as IC50 value.

The target of assay [2] is T1, TXA2 receptor (Homo sapiens, UniProt P21731).
T1 construct: the finally obtained precipitate was collected as the platelet membrane fraction; endogenous in cells; host or cells: membrane fraction of human platelets
T1 sequence (P21731 1-343): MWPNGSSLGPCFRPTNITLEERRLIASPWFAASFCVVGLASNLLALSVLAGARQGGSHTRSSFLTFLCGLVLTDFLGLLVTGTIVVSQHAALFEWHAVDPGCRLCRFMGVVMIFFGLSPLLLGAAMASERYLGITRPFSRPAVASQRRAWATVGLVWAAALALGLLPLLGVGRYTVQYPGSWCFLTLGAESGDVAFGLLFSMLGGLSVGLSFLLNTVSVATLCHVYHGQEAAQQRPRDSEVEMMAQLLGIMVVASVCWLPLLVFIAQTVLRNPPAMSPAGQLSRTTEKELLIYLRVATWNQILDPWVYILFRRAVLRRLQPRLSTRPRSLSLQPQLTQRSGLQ
The experiment in a line: TXA2 Receptor Binding Test 2 ([3H]SQ29548, human platelet membrane fraction). The settings on record: 25° C., 30 minutes, pH 7.4, Ki=IC50/[1+(radioactive ligand concentration/Kd)]. The method, then:
TXA2 Receptor Binding Test 2
Blood collected from human forearm vein and ACD solution (85 mM trisodium citrate, 65 mM citric acid, 2% glucose) in an amount of 1/10 volume of the blood were mixed the resultant was dividedly poured into Spitz tubes an amount of 8 ml/tube. The mixture was centrifuged at 200×g for 10 minutes at room temperature to obtain platelet-rich plasma and the obtained platelet-rich plasma was centrifuged at 1000×g for 15 minutes to obtain platelets. The platelets were washed by centrifugation using a washing buffer (115 mM sodium chloride, 4.3 mM potassium dihydrogen phosphate, 5.5 mM glucose, 1 mM disodium EDTA, 10 μM indomethacin, pH 6.5) and 1 ml of a melting buffer (10 mM Tris(hydroxymethyl)aminomethane, 5 mM magnesium chloride, 2 mM disodium EDTA, pH 7.4) was added. The resultant was frozen in liquid nitrogen and thawed at room temperature. By repeating freezing in liquid nitrogen and thawing totally three times, the platelets were ruptured. The resultant was washed three times by ultracentrifugation (40,000×g, each 20 minutes) using iced 5 mM Tris-HCl buffer, and the finally obtained precipitate was collected as the platelet membrane fraction.
As the ligand of TXA2, tritium-labelled SQ29548 ([^3 H]SQ29548) was used. As the solvent for the receptor binding reaction, 50 mM Tris-HCl buffer (5 mM magnesium chloride, pH 7.4) was used. […] The filter was washed with a iced buffer and radioactivity was measured by scintillation counter. The non-specific binding to substances other than the platelets was measured by the reaction in the presence of SQ29548 having a final concentration of […]. The IC50 value of the test compound and Hill coefficient in the binding test was determined by Pseudo-Hill plot. The receptor dissociation constant (Ki value) was calculated according to the following equation from the IC50 value and the receptor dissociation constant (Kd value) of [^3 H]SQ29548 determined in the saturation test. […]

For assay [3], the system named is platelet aggregation induced by ADP. As to the kind of experiment: Platelet Aggregation-Inhibition Action 2 (ADP-induced, platelet-rich plasma). In kind it is cell-based. As to conditions: ADP 1-3 μM final, PRP, compound added one minute before ADP. As for the experimental part:
Platelet Aggregation-Inhibition Action 2
as §1, with “PRP).” for “(PRP).”, “ADP” for “a TXA2 agonist U-46619”, “1-3” for “1-4”, “Hematoracer,” for “(Hematoracer,”, “ADP” for “U-46619 and”

The target in the next assay is T2, PGI2 receptor (Homo sapiens, UniProt P43119).
T2 construct: platelet membrane fraction having a concentration of 0.1 mg protein/ml; endogenous in cells
The experiment in a line: PGI2 Receptor Binding Test ([3H]APS-314d, platelet membrane fraction). The settings on record: platelet membrane fraction 0.1 mg protein/ml, 4° C., 60 minutes, Ki=IC50/[1+(radioactive ligand concentration/Kd)]. The method, then:
PGI2 Receptor Binding Test
As the ligand of PGI2 receptor, tritium-labelled (1R,2R,3aS,8bS)-2,3,3a,8-tetrahydro-2-hydroxy-1-[(E)-(3S,4S)-3-hydroxy-4-methyl-1-octene-6-ynyl]-1H-cyclopenta[b]benzofuran-5-butanoic acid ([^3 H]APS-314d) was used. The saturation test was carried out by reacting [^3 H]APS-314d (100 μl) having a final concentration of 3-100 nM with a suspension (100 μl) of platelet membrane fraction having a concentration of 0.1 mg protein/ml at 4° C. for 60 minutes under shaking. The competition test was carried out by mixing a mixture (100 μl) of a test compound dissolved in an appropriate solvent and then diluted and [^3 H]APS-314d, and the suspension of platelet membrane fraction (100 μl) having a concentration of 0.1 mg protein/ml, and allowing the mixture to react at 4° C. for 60 minutes under shaking. After the reaction, the resultant was filtered through a glass filter using a cell harvester to collect the membrane fraction on the glass filter. The filter was washed with a iced buffer and radioactivity was measured by scintillation counter. The non-specific binding to substances other than the platelets was measured by the reaction in the presence of sodium beraprost having a final concentration of 10 nM. The IC50 value of the test compound and Hill coefficient in the binding test was determined by Pseudo-Hill plot. The receptor dissociation constant (Ki value) was calculated according to the following equation from the IC50 value and the receptor dissociation constant (Kd value) of [^3 H]APS-314d determined in the saturation test.
Ki=IC50 /[1+(radioactive ligand concentration/Kd)]

For assay [4], the target named is T3, TXA2 receptor (Oryctolagus cuniculus, UniProt Q6WQI8).
T3 sequence (Q6WQI8 1-233): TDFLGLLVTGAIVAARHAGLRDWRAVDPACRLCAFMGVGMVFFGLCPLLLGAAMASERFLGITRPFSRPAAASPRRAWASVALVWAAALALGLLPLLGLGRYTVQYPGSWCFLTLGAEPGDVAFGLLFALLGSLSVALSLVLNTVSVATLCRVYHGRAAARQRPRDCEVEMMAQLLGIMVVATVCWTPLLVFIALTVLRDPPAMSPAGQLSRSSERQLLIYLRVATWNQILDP
The experiment in a line: TXA2 Receptor Binding Test 1 ([3H]SQ29548, washed rabbit platelets). Also on record: species or system New Zealand White rabbit. As to conditions: [3H]SQ29548 3 nM, rabbit washed platelets 10 mg/ml, 25° C., 60 minutes. The method, then: TXA2 Receptor Binding Test 1
Blood from a New Zealand White rabbit is taken in a vessel containing ACD solution (prepared by dissolving 1.175 g of sodium citrate, 0.685 g of citric acid and 1 g of dextrose in 50 ml of distilled water) and centrifuged at 180×g for 10 minutes at room temperature to obtain platelet-rich plasma. The obtained platelet-rich plasma is centrifuged at […] at room temperature to precipitate platelets. The platelets are then suspended in 50 mM Tris-HCl buffer (pH 7.2, containing 0.154M of NaCl) and the suspension is centrifuged at 2800×g for 15 minutes at 4° C. These operations are repeated twice to prepare washed platelets and the concentration of the platelets are adjusted to a final concentration of 10 mg/ml (wet weight).
As the ligand of TXA2, tritium-labelled SQ29548 ([^3 H]SQ29548) is used. In the antagonism test, 20 μl of [^3 H]SQ29548 having a final concentration of 3 nM is added to 500 μl of a platelet suspension having a platelet concentration of 10 mg/ml and 2.6 μl of a solution of a test compound dissolved in an appropriate solvent is added thereto. After incubating the resulting mixture at 25° C. for 60 minutes, the mixture is filtered through a glass filter by the cell harvester method. After washing the filter with 50 mM Tris-HCl buffer (3×4 ml), the radioactivity of the filter is measured by a scintillation counter, thereby measuring the amount of the [^3 H]SQ29548 bound to platelets. In the saturation test, 20 μl of [^3 H]SQ29548 is added to a final concentration of 0.1-50 nM and 2.6 μl of BM13505 having a final concentration of 1 μM is added so as to check non-specific binding, followed by carrying out the binding test. The concentration of the test compound at which binding of [^3 H]SQ29548 is inhibited by 50% is determined as the IC50 value.
The results of the evaluation of the activities of the compounds of the present invention by this method are summarized d in Table 3.

T2 sequence (P43119 whole entry): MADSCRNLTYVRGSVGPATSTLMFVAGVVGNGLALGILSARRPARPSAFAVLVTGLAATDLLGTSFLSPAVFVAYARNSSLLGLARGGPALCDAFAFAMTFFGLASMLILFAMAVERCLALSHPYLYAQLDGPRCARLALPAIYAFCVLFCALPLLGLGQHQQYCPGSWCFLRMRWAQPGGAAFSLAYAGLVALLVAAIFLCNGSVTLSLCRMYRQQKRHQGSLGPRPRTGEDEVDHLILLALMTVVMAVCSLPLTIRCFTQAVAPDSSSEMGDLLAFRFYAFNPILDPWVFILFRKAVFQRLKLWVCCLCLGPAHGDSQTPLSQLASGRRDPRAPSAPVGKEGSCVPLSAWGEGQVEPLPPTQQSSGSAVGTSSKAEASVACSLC

What is called IC50 is the concentration that inhibits the measured activity by half. Read a low IC50 as greater potency in that assay. The Ki is a dissociation constant, usually derived from enzyme kinetics or from competition with a known ligand. For `O=C(O)COc1cccc2c(COCCC(c3ccccc3)c3ccccc3)coc12` [Example 48, (3-((3,3-diphenylpropyloxy)methyl)benzofuran-7-yloxy)acetic acid], the results for the IC50 in assay [1] and in assay [3] were 4.8 µM and 7.8 µM, respectively. The Ki worked out at 7.7 µM on TXA2 receptor [2] and 0.38 µM at PGI2 receptor.

For `COC(=O)COc1cccc2c(CCSC(c3ccccc3)c3ccccc3)coc12` [Example 67, Methyl (3-(2-(diphenylmethylthio)ethyl)benzofuran-7-yloxy)acetate], on TXA2 receptor [2], the Ki is 0.31 µM.

Take `Cc1oc2c(OCC(=O)O)cccc2c1CNS(=O)(=O)Cc1ccccc1` [Example 15, Methyl (3-((benzylsulfonylamino)methyl)-2-methylbenzofuran-7-yloxy)acetic acid]: the results for the IC50 (in assay [1]; in assay [3]; at TXA2 receptor [4]) were 1 µM, 201 µM and 1.1 µM, respectively.

For `O=C(O)COc1cccc2c1ccn2CCCC(c1ccccc1)c1ccccc1` [Example 118, (1-(4,4-diphenylbutyl)indole-4-yloxy)acetic acid], the 50% inhibitory concentration (IC50) worked out at 1.7 µM in assay [1] and 3.6 µM in assay [3]. In addition, the Ki on TXA2 receptor [2] stood at 3.6 µM; at PGI2 receptor, 0.44 µM.

In the case of `Cc1oc2c(OCC(=O)O)cccc2c1CNS(=O)(=O)CCc1ccccc1` [Example 16, (3-(((2-phenylethyl)sulfonylamino)methyl)-2-methylbenzofuran-7-yloxy)aceticacid], the half-maximal inhibitory concentration (IC50) was 0.5 µM in assay [1], 403 µM in assay [3] and 0.0545 µM on TXA2 receptor [4].

Take `Cc1oc2c(OCC(=O)O)cccc2c1CCSCCc1ccccc1` [Example 31, (3-(2-(2-phenylethylthio)ethyl)-2-methylbenzofuran-7-yloxy)acetic acid]: the IC50 is 0.44 µM in assay [1], 265 µM in assay [3] and 0.0513 µM on TXA2 receptor [4].

Regarding `O=C(O)COc1cccc2c(CCSC(c3ccccc3)c3ccccc3)coc12` [Example 68], the IC50 in assay [1] was 0.9 µM; in assay [3] it was 6.2 µM. Moreover, at PGI2 receptor, the Ki turned out to be 0.41 µM.

As to `Cc1oc2c(OCC(=O)O)cccc2c1CC[S+]([O-])CCc1ccccc1` (centres unmarked) [Example 32, (3-(2-(2-phenylethylsulfinyl)ethyl)-2-methylbenzofuran-7-yloxy)acetic acid], the IC50 is 1.6 µM in assay [1] and 0.569 µM at TXA2 receptor [4].

For `Cc1ccc(S(=O)(=O)NCCn2ccc3c(OCC(=O)O)cccc32)cc1` [Example 103], the IC50 is 1.3 µM in assay [1] and 0.00309 µM at TXA2 receptor [4].

Take `O=C(O)COc1cccc2c(CNS(=O)(=O)c3ccc4ccccc4c3)coc12` [Example 13]: the IC50 in assay [1] was 7.2 µM; at TXA2 receptor [4], 0.0292 µM.

Consider `O=C(O)COc1cccc2c1ccn2CCNS(=O)(=O)c1ccccc1` [Example 104, (1-(2-(phenylsulfonylamino)ethyl)indole-4-yloxy)acetic acid], for which the IC50 in assay [1] is 5.1 µM; at TXA2 receptor [4], 0.0267 µM.

Source of the values: patent US6323235A, “Benzene-condensed heterocyclic derivatives and their uses” (priority 1995, dated 2001).
